The text below walks through data of patent US10131928B2, “Inositol biotransformation” (University Court of the University of St Andrews, priority 2013, dated 2018).

Type in all cases: biochemical
Test [1] has as its target T1, TbINO1 (Trypanosoma brucei brucei, UniProt Q5QQ46).
T1 construct: Hexa-His (N); made in house; host or cells: E. coli BL21 Rosetta (DE3)
T1 sequence (Q5QQ46 1-528): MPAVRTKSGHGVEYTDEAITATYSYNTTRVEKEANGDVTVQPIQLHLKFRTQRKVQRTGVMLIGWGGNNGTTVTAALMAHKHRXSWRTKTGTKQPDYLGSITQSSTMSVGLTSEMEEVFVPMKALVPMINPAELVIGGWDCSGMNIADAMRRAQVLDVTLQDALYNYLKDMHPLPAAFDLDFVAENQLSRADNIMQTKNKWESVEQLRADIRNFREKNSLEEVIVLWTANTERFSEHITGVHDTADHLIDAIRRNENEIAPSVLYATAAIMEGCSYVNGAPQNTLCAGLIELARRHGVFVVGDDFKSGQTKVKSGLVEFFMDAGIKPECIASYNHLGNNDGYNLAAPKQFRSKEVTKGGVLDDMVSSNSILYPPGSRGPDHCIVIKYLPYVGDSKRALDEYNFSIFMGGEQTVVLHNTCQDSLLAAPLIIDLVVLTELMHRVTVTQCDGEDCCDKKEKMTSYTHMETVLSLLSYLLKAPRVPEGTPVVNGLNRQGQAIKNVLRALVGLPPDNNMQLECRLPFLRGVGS
As to the kind of experiment: biochemical. The procedure: (§1) An alternative reaction mixture consisted of 2 mM Tris-Ac (pH 9), 2 mM glucose-6-phosphate, 1 mM NAD^+, 1 mM DTT, 2 mM NH4Ac and 5 μg protein in a final volume of 20 μL. The reaction was incubated at 37° C. for 1 hr and terminated by heating at 100° C. for 10 min and the addition of 80 μL of 10 mM NaOH. For inhibitor studies the standard reaction mixture was prepared without glucose-6-phosphate, the inhibitor was added to the reaction and incubated on ice for 10 min prior to the addition of glucose-6-phosphate and subsequent incubation of 37° C. for 1 hr.
(§2) After quenching the reaction mix was analysed by high performance anion-exchange chromatography using a Dionex HPLC system with a CarboPacPA-1 column and PA-1 guard column (Dionex). The column was pre-equilibrated with 95% Buffer A (1 mM sodium hydroxide) and 5% Buffer B (1M sodium acetate+1 mM sodium hydroxide). An aliquot (20 μL) of the quenched reaction mixture was injected onto the column and eluted a linear gradient of 5-40% […], detected with pulsed amperometric detection and analysed with Chromeleon software (Dionex).
(§3) The TbINO1 was pre-incubated with potential inhibitor prior to the addition of glucose-6-phosphate or fructose-6-phosphate and quantification of inositol-3-phosphate and fructose-6-phosphate by HPLC.

Test [2] deals with T1, TbINO1. The test can be described thus: biochemical. How it is done:
as §1, §2, §3
The source holds these as a separate data set.

The target of test [3] is T1, TbINO1. The test can be described thus: Compounds tested as substrates for TbINO1 in the standard reaction mixture, products separated by HPLC. The following applies: tested as substrate, longer time periods; intermediate conversion to glucose-6-phosphate. How it is done:
as §1
as §2, with “software (Dionex). The substrate glucose-6-phosphate and the product inositol-3-phosphate are clearly separated by this method. […]” for “software (Dionex).”

[4] abbreviates: Table 2, inhibitor pre-incubated with recombinant TbINO1, glucose-6-phosphate as substrate, read-out: IC50 INO1 activity.
The mark [5] stands for this setting: Table 2, inhibitor pre-incubated with recombinant TbINO1, fructose-6-phosphate as substrate, read-out: IC50 PGI activity.
Setting [6] is: Table 3, metabolic intermediates, pre-incubated, glucose-6-phosphate as substrate, read-out: IC50 INO1 activity.
The mark [7] stands for this setting: Table 3, metabolic intermediates, pre-incubated, fructose-6-phosphate as substrate, read-out: IC50 PGI activity.

Like-named read-outs stand apart in the source and are kept apart here.

The IC50 is the concentration that inhibits the measured activity by half. Regarding `COC1O[C@H](COP(=O)(O)O)[C@@H](O)[C@H](O)[C@H]1O` (some centres unmarked) [1-OMe-Glucose-6-P, glucose-1-O-methyl-6-phospahte], the IC50 in test [1] (setting [4]) and in test [2] (setting [5]) was 2.5 mM each time.
Take `O=P(O)(O)OC[C@H]1OC(O)C[C@@H](O)[C@@H]1O` (some centres unmarked) [2-Deoxyglucose-6-P]: the IC50 in test [1] and in test [2] was 4 mM in each case.
For the compound `O=CC[C@@H](O)[C@H](O)[C@H](O)CO` [2-Deoxyglucose], the IC50 in test [1] and in test [2] was > 10 mM in each case.
For the compound `O=P(O)(O)OC[C@H]1OC(O)[C@H](F)[C@@H](O)[C@@H]1O` (some centres unmarked) [2-F-Glucose-6-P, 2-fluoro-glucose-6-phospahte], the IC50 in test [1] (setting [4]) and in test [2] (setting [5]) was 1 mM throughout.
As to `O=P(O)(O)OC[C@H]1OC(O)[C@H](O)[C@@H](F)[C@@H]1O` (some centres unmarked) [3-F-Glucose-6-P, 3-fluoro-glucose-6-phospahte], the IC50 in test [1] and in test [2] was 2.5 mM each time.
Regarding `O=P(O)(O)OC[C@H]1OC(O)[C@H](O)[C@@H](O)[C@@H]1F` (some centres unmarked) [4-F-Glucose-6-P, 4-fluoro-glucose-6-phospahte], the IC50 in test [1] and in test [2] was > 10 mM each time.
On to `O=C(O)[C@H](O)[C@@H](O)[C@H](O)[C@H](O)COP(=O)(O)O` [6-phosphogluconic acid], for which, in test [1], the IC50 is > 10 mM and the “inhibition of INO1 activity” value is recorded as “No inhibition”. Moreover, in test [2], the IC50 is > 10 mM and the “inhibition of PGI (glucose-6-phosphate isomerase) activity” value (from here on “inhibition of PGI”) was “No inhibition”.
On to `CC(=O)N[C@H]1C(OP(=O)(O)O)O[C@H](CO)[C@@H](O)[C@@H]1O` (some centres unmarked) [Acetylglucosamine-1-P, acetylglucosamine-1-phosphate], for which the “inhibition of INO1 activity” value in test [1] is reported as “No inhibition”. In addition, the IC50 in test [1] (setting [4]) and in test [2] (setting [5]) was > 10 mM each time. The “inhibition of PGI” value in test [2] was “No inhibition”.
Turning to `CC(=O)N[C@H]1C(O)O[C@H](COP(=O)(O)O)[C@@H](O)[C@@H]1O` (some centres unmarked) [Acetylglucosamine-6-P, acetylglucosamine-6-phosphate], in test [1], the “inhibition of INO1 activity” value is given as “No inhibition”. In addition, the IC50 in test [1] (setting [4]) and in test [2] (setting [5]) was > 10 mM each time. Further, the “inhibition of PGI” value in test [2] is recorded as “No inhibition”.
As for `O=C(CO)COP(=O)(O)O` [DHAP], the “inhibition of INO1 activity” value in test [1] is “Inhibition was observed”. The IC50 in test [1] (setting [6]) and in test [2] (setting [7]) was 3 mM in each case. In addition, the “inhibition of PGI” value in test [2] was “Inhibition was observed”.
As to `O=C(CO)CO` [DHA], the “inhibition of INO1 activity” value in test [1] is listed as “no inhibition”. Further, the IC50 in test [1] (setting [6]) and in test [2] (setting [7]) was > 10 mM in each case. The “inhibition of PGI” value in test [2] is on record as “no inhibition”.
For `O=C[C@H](O)COP(=O)(O)O` [GAP], the “inhibition of INO1 activity” value in test [1] was “Inhibition was observed”. Also, the IC50 in test [1] (setting [6]) and in test [2] (setting [7]) was 2 mM throughout. Further, in test [2], the “inhibition of PGI” value is recorded as “Inhibition was observed”.
As for `O=C[C@H](O)[C@@H](O)[C@@H](O)[C@H](O)COP(=O)(O)O` [Galactose-6-P, galactose-6-phosphate], in test [1], the IC50 is > 10 mM and the “inhibition of INO1 activity” value was “No inhibition”. For the same compound, in test [2], the IC50 is > 10 mM and the “inhibition of PGI” value is “No inhibition”.
Consider `O=P(O)(O)O[C@H]1O[C@H](CO)[C@@H](O)[C@H](O)[C@H]1O` [Glucose-1-P, glucose-1-phosphate], for which the “inhibition of INO1 activity” value in test [1] is “No inhibition”. For the same compound, the IC50 in test [1] (setting [4]) and in test [2] (setting [5]) was > 10 mM throughout. Further, the “inhibition of PGI” value in test [2] is recorded as “No inhibition”.
Regarding `O=CC(O)CO` (centres unmarked) [Glyceraldehyde, glyceraldehyde], in test [1], the IC50 is > 10 mM and the “inhibition of INO1 activity” value is “no inhibition”. For the same compound, in test [2], the IC50 was > 10 mM and the “inhibition of PGI” value is “no inhibition”.
For `O=P(O)(O)OCC(O)CO` (centres unmarked) [Glycerophosphate], the “inhibition of INO1 activity” value in test [1] is reported as “No inhibition”. Besides, the IC50 in test [1] (setting [4]) and in test [2] (setting [5]) was > 10 mM throughout. In test [2], the “inhibition of PGI” value was “No inhibition”.
Take `O=C[C@@H](O)[C@@H](O)[C@H](O)[C@H](O)COP(=O)(O)O` [Mannose-6-P, mannose-6-phosphate]: in test [1], the IC50 is > 10 mM and the “inhibition of INO1 activity” value is given as “No inhibition”. In test [2], the IC50 is > 10 mM and the “inhibition of PGI” value is recorded as “No inhibition”.
With `O=C(O)CC(=O)C(=O)O` [OAA], in test [1], the “inhibition of INO1 activity” value is on record as “Inhibition was observed”. Further, the IC50 turned out to be 1.5 mM in test [1] (setting [6]) and 2 mM in test [2] (setting [7]). Moreover, the “inhibition of PGI” value in test [2] is on record as “Inhibition was observed”.
`C=C(OP(=O)(O)O)C(=O)O` [PEP]: the “inhibition of INO1 activity” value in test [1] is recorded as “No inhibition”. Also, the IC50 in test [1] (setting [6]) and in test [2] (setting [7]) was > 10 mM in each case. The “inhibition of PGI” value in test [2] was “No inhibition”.
As for `CC(=O)C(=O)O` [Pyruvate, pyruvate], the IC50 in test [1] and in test [2] was > 10 mM in each case.
For the compound `CCCC(CCC)C(=O)O` [VPA], in test [1], the “inhibition of INO1 activity” value was “No inhibition”. Moreover, the IC50 in test [1] (setting [6]) and in test [2] (setting [7]) was > 10 mM in each case. In addition, in test [2], the “inhibition of PGI” value was “No inhibition”.
With `O=C(CO)[C@@H](O)[C@H](O)[C@H](O)COP(=O)(O)O` [fructose-6-phosphate], the “conversion to inositol-3-phosphate by TbINO1” value in test [3] is on record as “quantitative conversion”.
